These results are taken from patent US20200157092A1, “[1,2,4]-TRIAZOLO [1,5-A]-PYRIMIDINYL DERIVATIVES SUBSTITUTED WITH PIPERIDINE, […] […] OGA INHIBITORS” (priority 2017, published 2020).

Molecules are shown by their SMILES. Like-named read-outs stand apart in the source and are kept apart here.

A word on the Emax: it is the size of the effect at its maximum, as opposed to the concentration needed. As a reminder, the melting point is the temperature, or range, at which the solid turns liquid. For orientation: EC50 means the concentration giving half of the maximal effect. Lower therefore signals a more potent agent.

The target of series [1] is T1, recombinant human Meningioma Expressed Antigen 5 (MGEA5), also referred to as O-GlcNAcase (OGA) (Homo sapiens, UniProt O60502).
T1 construct: Full length OGA enzyme was purchased at OriGene (cat # TP322411); purchased OriGene TP322411
T1 sequence (O60502 1-916): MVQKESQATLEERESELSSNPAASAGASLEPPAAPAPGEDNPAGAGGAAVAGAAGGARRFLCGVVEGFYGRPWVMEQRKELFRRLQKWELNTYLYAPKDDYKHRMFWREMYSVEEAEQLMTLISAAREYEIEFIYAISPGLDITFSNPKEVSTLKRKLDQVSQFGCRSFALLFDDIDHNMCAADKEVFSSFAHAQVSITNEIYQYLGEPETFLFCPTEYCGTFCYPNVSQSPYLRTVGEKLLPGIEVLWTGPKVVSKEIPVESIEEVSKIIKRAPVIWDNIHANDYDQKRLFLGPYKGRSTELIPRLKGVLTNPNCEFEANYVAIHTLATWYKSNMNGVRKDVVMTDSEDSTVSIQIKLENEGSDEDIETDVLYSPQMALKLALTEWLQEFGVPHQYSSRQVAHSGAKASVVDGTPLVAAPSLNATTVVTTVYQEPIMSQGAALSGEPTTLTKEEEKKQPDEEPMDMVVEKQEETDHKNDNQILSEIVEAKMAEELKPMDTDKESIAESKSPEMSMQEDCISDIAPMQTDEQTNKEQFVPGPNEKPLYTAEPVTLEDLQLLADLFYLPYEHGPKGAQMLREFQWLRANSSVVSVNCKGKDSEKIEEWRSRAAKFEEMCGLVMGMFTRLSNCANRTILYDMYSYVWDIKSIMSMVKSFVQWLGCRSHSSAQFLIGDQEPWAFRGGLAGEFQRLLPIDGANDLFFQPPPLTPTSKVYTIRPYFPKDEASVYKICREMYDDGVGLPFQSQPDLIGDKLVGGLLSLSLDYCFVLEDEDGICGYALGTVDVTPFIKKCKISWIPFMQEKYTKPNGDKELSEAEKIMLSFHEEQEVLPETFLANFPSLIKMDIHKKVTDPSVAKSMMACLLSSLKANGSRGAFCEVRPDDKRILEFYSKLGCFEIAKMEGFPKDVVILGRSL
As to the kind of experiment: OGA biochemical assay: inhibition of FM-GlcNAc hydrolysis, fluorescence; protocol A (10 nM OGA, 1 h) or protocol B (2 nM OGA, 6 h). Conditions: for IC50: read-out: Enzymatic hOGA, pIC50 (converted).

Series [2] has as its target T2, OGA (Homo sapiens, UniProt O60502).
T2 construct: HEK293 cells inducible for P301L mutant human Tau (isoform 2N4R) were established at Janssen; endogenous in cells; host or cells: HEK293 cells inducible for P301L mutant human Tau (2N4R)
T2 sequence (O60502 1-916): T1 sequence (O60502 1-916)
As to the kind of experiment: OGA cellular assay: immunocytochemical detection of O-GlcNAcylated proteins in HEK293 cells inducible for P301L mutant human Tau. Particulars: for Emax: HEK293, read-out: Cellular Emax (%). It is filed as cell-based.

The mark [3] stands for this setting: Enzymatic protocol A (10 nM OGA, 1 h).
[4] abbreviates: Enzymatic protocol B (2 nM OGA, 6 h).

On to `CC(=O)Nc1ncc(CN2CCCC(c3cc(C(F)F)n4ccnc4n3)C2)s1` (racemic) [Product 24], for which the melting point was found to be 232.44 °C. In series [1] (setting [3]), the Emax worked out at 102% and the IC50 was 31.6 nM. In series [2], the midpoint of the response, the EC50, lay at 479 nM and the Emax amounted to 109%.
With `CC(=O)Nc1ncc(S(=O)(=O)N2CCCC(c3cc(C(F)F)nc4ncnn34)C2)s1` (racemic) [Product 6], the melting point worked out at 266.14 °C. In addition, in series [1] (setting [3]), the Emax was determined as 101% and the IC50 was 9.33 nM. Besides, in series [2], the EC50 is over 10000 nM and the Emax came out at 39.4%.
For the compound `CC(=O)Nc1ncc(CN2CC[C@H](Cc3nccn4c(C)cnc34)C2)s1` [Product 104], the melting point was found to be 189.54 °C. Further, in series [1] (setting [4]), the Emax was 100% and the IC50 is 1.48 nM. Moreover, in series [2], it took 61.7 nM to reach a half-maximal effect (EC50) and the Emax is 91.5%.
The compound `CC(=O)Nc1ncc(CN2CCCC(c3cc(C(F)F)nc4ncnn34)C2)s1` (racemic) [Product 13] yielded a melting point of 186.01 °C. Moreover, in series [1] (setting [3]), the Emax came to 101% and the IC50 was 8.51 nM. In addition, in series [2], the response was half-maximal at 35.5 nM (EC50) and the Emax came to 130%.
For `CC(=O)Nc1ncc(S(=O)(=O)N2CCOC(c3cc(C(F)F)nc4ncnn34)C2)s1` (stereo not shown) [Product 33], the melting point worked out at 264.85 °C. In series [1] (setting [3]), the Emax was found to be 101% and the IC50 was 6.46 nM. In addition, in series [2], the EC50 is over 10000 nM and the Emax stood at 15.7%.
Compound `CC(=O)Nc1ncc(S(=O)(=O)N2CCO[C@@H](c3ccnc4ncnn34)C2)s1` [Product 31] came in with a melting point of 263.16 °C. Also, in series [1] (setting [3]), the Emax was found to be 103% and the IC50 is 15.8 nM. Further, in series [2], the EC50 is over 10000 nM and the Emax was 11.1%.
In turn, `CC(=O)Nc1ncc(S(=O)(=O)N2CCNC(c3cc(C(F)F)nc4ncnn34)C2)s1` (stereo not shown) [Product 41] returned a melting point of 227.97 °C. In series [1] (setting [3]), the maximum response (Emax) was found to be 102% and the IC50 is 6.17 nM. In series [2], the EC50 is over 10000 nM and the Emax worked out at 10.5%.
For `CC(=O)Nc1ncc(S(=O)(=O)N2CCOC(c3cc(C(F)(F)F)nc4ncnn34)C2)s1` (stereo not shown) [Product 27], the melting point turned out to be 255.12 °C. Also, in series [1] (setting [3]), the Emax worked out at 100% and the IC50 is 17 nM. Also, in series [2], the EC50 is over 10000 nM and the Emax worked out at 19.5%.
Regarding `CC(=O)Nc1ncc(CN2CCC[C@@H](c3cc(C(F)F)n4ncnc4n3)C2)s1` [Product 25], the melting point came to 182.53 °C. In addition, in series [1] (setting [3]), the Emax stood at 103% and the IC50 was 13.5 nM. In series [2], the EC50 is 457 nM and the Emax is 113%.
`CC(=O)Nc1ncc(CN2CCCC(c3cc(C)nc4ncnn34)C2)s1` (racemic) [Product 11] had a melting point of 246.95 °C. Also, in series [1] (setting [4]), the Emax worked out at 100% and the IC50 was 6.17 nM. Also, in series [2], the EC50 is 27.5 nM and the Emax came out at 113%.
On to `CC(=O)Nc1ncc(CN2CCCC(c3cc4cc[nH]c4nc3C)C2)s1` (racemic) [Product 74], for which the melting point is 276.23 °C. Further, in series [1] (setting [3]), the Emax was determined as 101% and the IC50 is 6.31 nM. Besides, in series [2], the EC50 is 13.5 nM and the Emax came out at 102%.
In turn, `CC(=O)Nc1ncc(CN2CCC[C@H](c3ccnc4ncnn34)C2)s1` [Product 9] gave a melting point of 234.6 °C. Also, in series [1] (setting [3]), the Emax turned out to be 101% and the IC50 is 11.7 nM. In series [2], the half-maximal effective concentration (EC50) is 38.9 nM and the Emax stood at 109%.
Turning to `CC(=O)Nc1ncc(S(=O)(=O)N2CCOC(c3cc(C)nc4ncnn34)C2)s1` (racemic) [Product 28], the melting point came to 290.78 °C. In series [1] (setting [3]), the maximum response (Emax) came out at 103% and the IC50 is 9.12 nM. In series [1] (setting [4]), the Emax was found to be 101% and the IC50 is 8.51 nM. For the same compound, in series [2], the EC50 is over 10000 nM and the maximal effect (Emax) is 22%.
